Reference: ChEMBL document CHEMBL3044575, “Synthesis, anti-inflammatory activity, and QSAR study of some Schiff bases derived from 5-mercapto-3-(4-pyridyl)-4H-1,2,4-triazol-4-yl-thiosemicarbazide” (2013)

Columns and labels:
Type in all cases: functional
[1] = test system: Rattus norvegicus; test: Anti-inflammatory activity in Albino Rattus norvegicus (rat) assessed as inhibition of carrageenan-induced paw edema at 20 mg/kg, po administered 1 hr prior to carrageenan challenge measured after 5 hr by mercury displacement technique
[2] = test system: Rattus norvegicus; test: Anti-inflammatory activity in Albino Rattus norvegicus (rat) assessed as inhibition of carrageenan-induced paw edema at 20 mg/kg, po administered 1 hr prior to carrageenan challenge measured after 2 hr by mercury displacement technique
[3] = test system: Rattus norvegicus; test: Anti-inflammatory activity in Albino Rattus norvegicus (rat) assessed as inhibition of carrageenan-induced paw edema at 20 mg/kg, po administered 1 hr prior to carrageenan challenge measured after 1 hr by mercury displacement technique
[4] = test system: Rattus norvegicus; test: Anti-inflammatory activity in Albino Rattus norvegicus (rat) assessed as inhibition of carrageenan-induced paw edema at 10 mg/kg, po administered 1 hr prior to carrageenan challenge measured after 1 hr by mercury displacement technique
[5] = test system: Rattus norvegicus; test: Anti-inflammatory activity in Albino Rattus norvegicus (rat) assessed as inhibition of carrageenan-induced paw edema at 10 mg/kg, po administered 1 hr prior to carrageenan challenge measured after 2 hr by mercury displacement technique
[6] = test system: Rattus norvegicus; test: Anti-inflammatory activity in Albino Rattus norvegicus (rat) assessed as inhibition of carrageenan-induced paw edema at 10 mg/kg, po administered 1 hr prior to carrageenan challenge measured after 5 hr by mercury displacement technique

With `O=[N+]([O-])c1ccc(/C=N/NC(=S)Nn2c(S)nnc2-c2ccncc2)cc1` the inhibition in vivo at 20 mg/kg [1] was 41.5%, the inhibition in vivo at 20 mg/kg [2] was 34.5% and the inhibition in vivo at 20 mg/kg [3] was 14.3%.
`S=C(N/N=C/c1ccccc1Cl)Nn1c(S)nnc1-c1ccncc1` was tested, and the inhibition in vivo at 20 mg/kg [1] was 67.3%, the inhibition in vivo at 20 mg/kg [2] was 62.5% and the inhibition in vivo at 20 mg/kg [3] was 39.1%.
Compound `S=C(N/N=C/c1ccc(Cl)cc1)Nn1c(S)nnc1-c1ccncc1` has an inhibition in vivo at 20 mg/kg [1] of 76.9%, an inhibition in vivo at 20 mg/kg [2] of 69.6% and an inhibition in vivo at 20 mg/kg [3] of 45.5%.
`COc1cc(/C=N/NC(=S)Nn2c(S)nnc2-c2ccncc2)cc(OC)c1OC` showed an inhibition in vivo at 20 mg/kg [1] of 61.4%, an inhibition in vivo at 20 mg/kg [2] of 52.9% and an inhibition in vivo at 20 mg/kg [3] of 36.2%.
`COc1ccc(/C=N/NC(=S)Nn2c(S)nnc2-c2ccncc2)cc1O` gave an inhibition in vivo at 20 mg/kg [1] of 48.4%, an inhibition in vivo at 20 mg/kg [2] of 44.4% and an inhibition in vivo at 20 mg/kg [3] of 28%.
Compound `COc1ccc2c(c1)c(CC(=O)O)c(C)n2C(=O)c1ccc(Cl)cc1` [INDOMETHACIN] has an inhibition in vivo at 10 mg/kg [4] of 52%, an inhibition in vivo at 10 mg/kg [5] of 73% and an inhibition in vivo at 10 mg/kg [6] of 84%.
